Measurements published in patent publication US20080096799A1, “COMPOUNDS FOR AND METHODS OF TREATING INSULIN RESISTANCE AND INFLAMMATION” (FORBES MEDI-TECH (RESEARCH), INC., priority 2006, published 2008).

Key:
[1] = system: SPT; conditions: literature report, immunosuppressive assay for FTY720-like activity; cited from earlier work
[2] = system: Rat pancreatic islets; assay: Protection of islets by an SPT inhibitor (fatty acid medium, propidium iodide flow cytometry); format: cell-based; conditions: 3 days
Method: Islet protection by an exemplary compound is evaluated in an assay according to Eitel, K, et al. Biochem. Biophys. Res. Commun. 299: 853-6 (2002), and results obtained in this assay are reported below in Table 4. Rat pancreatic islets are cultured with control medium (RPMI 1640 supplemented with 10% fetal bovine serum, antibiotics and made […]) or in medium supplemented with 1 millimolar sodium palmitate (Fatty Acid Medium) during a period of 3 days. The culture medium is changed after 2 days to an identical composition culture medium with fresh inhibitor in the appropriate wells. Cells are stained with propidium iodide (PI), washed and propidium staining of cells (as a measure of cellular DNA content) is assessed by flow cytometry. The percentage of cells having less than the normal amount of PI staining is considered to be apoptotic cells (Eitel, K, et al. (2002)).

[3] = target: T1, SPT (Homo sapiens, UniProt O15269+O15270); assay: Serine palmitoyltransferase activity, Assay C ([3H]serine incorporation into lipids, cell homogenates); format: biochemical; conditions: [3H]serine radioactivity incorporated into lipids, 37° C. 20 min, at the doses indicated
T1 construct: endogenous in cells; host or cells: unnamed cultured cells (Assay B, which Assay C modifies, offers 'CHO cells or a human cell line')
T1 sequence (O15269 1-473): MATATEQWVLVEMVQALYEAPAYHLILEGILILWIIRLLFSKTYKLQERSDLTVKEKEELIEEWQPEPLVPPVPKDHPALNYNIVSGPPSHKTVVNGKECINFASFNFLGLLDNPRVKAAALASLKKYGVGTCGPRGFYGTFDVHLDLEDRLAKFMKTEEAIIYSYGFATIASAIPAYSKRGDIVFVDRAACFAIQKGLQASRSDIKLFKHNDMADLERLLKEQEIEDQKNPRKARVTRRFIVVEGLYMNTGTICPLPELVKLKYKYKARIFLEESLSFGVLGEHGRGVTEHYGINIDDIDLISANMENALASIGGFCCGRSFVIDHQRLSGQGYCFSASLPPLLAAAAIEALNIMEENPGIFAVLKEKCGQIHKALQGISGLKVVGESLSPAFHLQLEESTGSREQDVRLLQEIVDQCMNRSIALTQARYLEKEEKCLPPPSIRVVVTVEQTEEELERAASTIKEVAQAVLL
T1 sequence (O15270 1-562): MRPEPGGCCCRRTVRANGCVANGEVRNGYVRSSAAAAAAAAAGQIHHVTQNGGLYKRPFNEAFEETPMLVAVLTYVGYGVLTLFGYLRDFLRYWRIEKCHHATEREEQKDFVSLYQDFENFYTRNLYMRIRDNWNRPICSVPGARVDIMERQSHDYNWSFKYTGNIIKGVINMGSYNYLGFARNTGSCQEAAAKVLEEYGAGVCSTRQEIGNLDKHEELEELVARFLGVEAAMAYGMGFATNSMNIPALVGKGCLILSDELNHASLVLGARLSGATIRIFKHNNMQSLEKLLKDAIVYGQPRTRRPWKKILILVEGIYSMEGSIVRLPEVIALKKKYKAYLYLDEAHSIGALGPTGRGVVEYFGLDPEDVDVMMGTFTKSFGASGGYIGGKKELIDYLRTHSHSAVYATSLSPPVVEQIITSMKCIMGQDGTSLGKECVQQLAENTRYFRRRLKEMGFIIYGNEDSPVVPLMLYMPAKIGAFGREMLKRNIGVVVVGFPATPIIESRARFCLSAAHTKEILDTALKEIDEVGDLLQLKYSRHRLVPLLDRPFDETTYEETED
T1 sequence (Q969W0 1-71 partner): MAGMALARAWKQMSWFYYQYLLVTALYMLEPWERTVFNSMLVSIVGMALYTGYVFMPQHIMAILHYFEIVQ
Method: An alternative assay for evaluating inhibition of SPT, the enzyme present in commonly cultured cells, is performed with CHO cells or a human cell line. Cells are washed three times with ice-cold phosphate-buffered saline (PBS). A total of 0.5 mL of lysis buffer [50 mM Hepes (pH 8.0) containing 5 mM ethylenediaminetetraacetic acid (EDTA) and 5 mM dithiothreitol (DTT)] is added to each dish. The cells are scraped using a rubber policeman, and are then transferred to a test tube on ice. The cell suspension is sonicated three times for 5 s at 1-2 min intervals on ice. Protein concentrations in cell homogenates are measured using a Bradford protein assay kit (Bio-Rad). […] The radioactivity is measured with a LS6000TA liquid scintillation counter (Beckman). Nonspecific conversion of [^3H] serine to chloroform-soluble species is determined by performing the assay in the absence of palmitoyl CoA. […]
An alternative assay using a non-chlorinated solvent modification of the Blye and Dyer lipid extraction method reported in Smedes (Smedes, F. (1999) Analyst 124, 1711-18) is employed to evaluate exemplary compounds. […] An accurately measured portion of the organic layer (4.0 ml) is added to a scintillation vial with 1 ml of water. […] The amount of [^3H] serine radioactivity incorporated into lipids is quantified in a scintillation counter. […]

[4] = system: diabetic Zucker fatty rat model; conditions: inhibition of SPT; cited from earlier work

Compound | activity against SPT [1] | inhibition of SPT [3] | further results
CCCCCCCCc1ccc(CCC(N)(CO)C(=O)O)cc1 (stereo not shown) [compound 2] | did not exhibit activity |  | 
CCCCCCCOc1ccc(CCC(O)C(O)C(N)(CC(N)=O)C(=O)O)cc1 (stereo not shown) [Compound 12] |  | moderate activity | protection of cells from the fatty acid treatment (apoptotic cells by PI staining) ([2]; 1 millimolar sodium palmitate): fully protect; benefit in comparison to treatment with the control medium ([2]; PI staining): imparts a benefit
CCCCCCCCc1ccc(CCC(N)(CO)CO)cc1 [FTY720] | do not inhibit SPT |  | 
N[C@@H]1CON=C1O [cycloserine] |  |  | beta cell protective effect [4]: ≈ 50%
CCCCCCC(=O)CCCCCC/C=C/C[C@@H](O)[C@H](O)[C@@](N)(CO)C(=O)O [ISP-1, myriocin] |  | potent but non-selective inhibition | 
